Read-outs that look alike come from different tables or passages of the source.
What was measured:
[1] = target: T1, human SGLT2 (Homo sapiens, UniProt P31639); test: Assay for SGLT2 inhibition (14C-AMG uptake); type: cell-based
T1 construct: expressed in transfected cells; host or cells: CHOK1 cells (selected with Geneticin)
T1 sequence (P31639 1-672): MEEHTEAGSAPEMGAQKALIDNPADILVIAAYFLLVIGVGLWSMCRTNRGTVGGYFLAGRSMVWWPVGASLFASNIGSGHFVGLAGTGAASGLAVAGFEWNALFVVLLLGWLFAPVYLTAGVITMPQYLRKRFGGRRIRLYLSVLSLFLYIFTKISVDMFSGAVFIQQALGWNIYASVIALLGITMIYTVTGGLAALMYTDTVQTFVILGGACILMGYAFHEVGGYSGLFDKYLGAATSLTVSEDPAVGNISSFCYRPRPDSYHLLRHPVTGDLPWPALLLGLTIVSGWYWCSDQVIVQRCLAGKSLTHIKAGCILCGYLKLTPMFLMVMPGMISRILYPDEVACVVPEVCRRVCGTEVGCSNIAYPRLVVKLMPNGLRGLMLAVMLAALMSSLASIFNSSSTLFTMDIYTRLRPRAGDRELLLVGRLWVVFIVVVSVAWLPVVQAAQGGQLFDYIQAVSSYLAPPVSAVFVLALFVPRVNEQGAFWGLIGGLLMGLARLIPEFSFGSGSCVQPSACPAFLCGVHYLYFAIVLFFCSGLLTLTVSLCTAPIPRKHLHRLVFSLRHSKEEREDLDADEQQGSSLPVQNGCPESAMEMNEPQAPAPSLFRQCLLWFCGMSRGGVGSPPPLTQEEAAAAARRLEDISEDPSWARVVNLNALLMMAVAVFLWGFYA
Method: Compounds described in the above examples were used for the SGLT2 inhibition assay. CHOK1 cells expressing human SGLT2 were seeded in 24-well plates at a density of 400,000 cells/well in F-12 nutrient mixture (Ham's F-12) containing 10% fetal bovine serum, 400 μg/ml Geneticin, 50 units/ml sodium penicillin G (Gibco-BRL) and 50 μg/ml streptomycin sulfate. After 2 days of culture at 37° C. in a humidified atmosphere containing 5% CO2, cells were washed once with the assay buffer (137 mM NaCl, 5 mM KCl, 1 mM CaCl2, 1 mM MgCl2, 50 mM Hepes, and 20 mM Tris, pH 7.4) and incubated with 250 μl of the buffer containing test compounds for 10 min at 37° C. Test compounds were dissolved in DMSO. The final concentration of DMSO was 0.5%. The transport reaction was initiated by addition of 50 μl [^14C]-methyl-α-D-glucopyranoside (^14C-AMG) solution (final concentration, 0.5 mM). After incubation for 2 hours at 37° C., the uptake was stopped by aspiration of the incubation mixture, the cells were washed three times with ice-cold PBS. Then, cells were solubilized with 0.3 N NaOH and aliquots were taken for determination of radioactivity by a liquid scintillation counter. Nonspecific AMG uptake was defined as that which occurred in the presence of 100 μM of phlorizin, a specific inhibitor of sodium-dependent glucose cotransporter. Specific uptake was normalized for the protein concentrations measured by the method of Bradford. The 50% inhibitory concentration (IC50) values were calculated from dose-response curves by least square method.

[2] = tested on: Sprague-Dawley (SD) rats; test: Urinary glucose excretion test in rats; type: in vivo, rat; conditions: male SD rats, 30 mg/kg by oral gavage, urine collected for 24 hours, daily amount of glucose excreted per individual
Method: Compounds described in the above examples were used for the Urinary glucose excretion test in rats.
6-week-old male Sprague-Dawley (SD) rats were housed in individual metabolic cages with free access to food and water from 2 days prior to the experiment. On the morning of the experiment, rats were administered vehicle (0.2% carboxymethyl cellulose solution containing 0.2% Tween80) or test compounds (30 mg/kg) by oral gavage at a volume of 10 ml/kg. Then, urine of the rat was collected for 24 hours, and the urine volume was measured. Subsequently, the glucose concentration in urine was quantified using the enzymatic assay kit and the daily amount of glucose excreted in urine per individual was calculated.

[3] = CHOK1 cells expressing human SGLT2, 14C-AMG uptake, 2 hours at 37° C., read-out: IC50

Compound | IC50 [1, 3] [nM] | Urinary glucose [2] | IC50 [1] [nM]
OC[C@H]1O[C@@H](n2cc(Cc3ccc(C4CC4)cc3)c3c(F)cccc32)[C@H](O)[C@@H](O)[C@@H]1O [Example 1, 3-(4-Cyclopropylphenylmethyl)-4-fluoro-1-(β-D-gluco-pyranosyl)indole] | 1.9 | B (2400 mg>B≧2000 mg) | 
OC[C@H]1O[C@@H](n2cc(Cc3ccc(C4CC4)cc3)c3c(Cl)cccc32)[C@H](O)[C@@H](O)[C@@H]1O [Example 2, 4-Chloro-3-(4-cyclopropylphenyl-methyl)-1-(β-D-glucopyranosyl)indole] |  | A (A≧2400 mg) | 2.3
OC[C@H]1O[C@@H](n2cc(Cc3ccc(C4CC4)cc3)c3c(F)cc(F)cc32)[C@H](O)[C@@H](O)[C@@H]1O [Example 3, 3-(4-Cyclopropylphenylmethyl)-4,6-difluoro-1-(β-D-gluco-pyranosyl) indole] | 2.8 | B (2400 mg>B≧2000 mg) | 
OC[C@H]1O[C@@H](n2cc(Cc3ccc(C4CC4)cc3)c3c(Cl)cc(F)cc32)[C@H](O)[C@@H](O)[C@@H]1O [Example 4, 4-Chloro-3-(4-cyclopropylphenylmethyl)-6-fluoro-1-(β-D-gluco-pyranosyl) indole] | 3.6 | C (2000 mg>C) | 

Source: US7851617B2, “Indole derivatives” (Mitsubishi Tanabe Pharma Corporation, priority 2006, dated 2010)
